Tests used:
Assay in all cases: fitness (endpoint OD595 vs no drug) (fraction); higher = more growth
[1] = test system: B. subtilis 168
Summary of the method: (§1)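 In 384-well plates at 37 °C, cultures began at OD595 0.01 in 30 µl, with 55 µl used for S. pneumoniae. OD595 readings every 30 min for 14 h were corrected by the first reading. Fitness divides the stationary-phase transition optical density by the robust mean of no-drug control wells. The result is capped at 1.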

[2] = test system: S. aureus DSM 20231
Summary of the method: as §1

[3] = test system: S. pneumoniae D39V
Summary of the method: as §1
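Further: OD595 on entry to stationary phase over no-drug wells; at most 1.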

CN(C)[C@@H]1C(O)=C(C(N)=O)C(=O)[C@@]2(O)C(O)=C3C(=O)c4c(O)ccc(Cl)c4[C@@](C)(O)[C@H]3C[C@@H]12 [Chlortetracycline] + Cc1onc(-c2ccccc2)c1C(=O)N[C@@H]1C(=O)N2[C@@H]1SC(C)(C)[C@@H]2C(=O)O [Oxacillin]
Conditions | fitness
[1], first compound 0.0475 µg/mL, partner 0.002 µg/mL | 0.868
[1], first compound 0.0475 µg/mL, partner 0.004 µg/mL | 0.829
[1], first compound 0.0475 µg/mL, partner 0.008 µg/mL | 0.832
[1], first compound 0.095 µg/mL, partner 0.002 µg/mL | 0.802
[1], first compound 0.095 µg/mL, partner 0.004 µg/mL | 0.764
[1], first compound 0.095 µg/mL, partner 0.008 µg/mL | 0.726
[1], first compound 0.19 µg/mL, partner 0.002 µg/mL | 0.488
[1], first compound 0.19 µg/mL, partner 0.004 µg/mL | 0.401
[1], first compound 0.19 µg/mL, partner 0.008 µg/mL | 0.416
[2], first compound 0.012 µg/mL, partner 0.0156 µg/mL | 0.452
[2], first compound 0.012 µg/mL, partner 0.0312 µg/mL | 0.379
[2], first compound 0.012 µg/mL, partner 0.0625 µg/mL | 0.341
[2], first compound 0.024 µg/mL, partner 0.0156 µg/mL | 0.204
[2], first compound 0.024 µg/mL, partner 0.0312 µg/mL | 0.173
[2], first compound 0.024 µg/mL, partner 0.0625 µg/mL | 0.165
[2], first compound 0.048 µg/mL, partner 0.0156 µg/mL | 0.0968
[2], first compound 0.048 µg/mL, partner 0.0312 µg/mL | 0.0599
[2], first compound 0.048 µg/mL, partner 0.0625 µg/mL | 0.0746
[3], first compound 0.012 µg/mL, partner 0.01 µg/mL | 0.921
[3], first compound 0.012 µg/mL, partner 0.02 µg/mL | 0.878
[3], first compound 0.012 µg/mL, partner 0.04 µg/mL | 0.6
[3], first compound 0.024 µg/mL, partner 0.01 µg/mL | 0.876
[3], first compound 0.024 µg/mL, partner 0.02 µg/mL | 0.853
[3], first compound 0.024 µg/mL, partner 0.04 µg/mL | 0.681
[3], first compound 0.048 µg/mL, partner 0.01 µg/mL | 0.821
[3], first compound 0.048 µg/mL, partner 0.02 µg/mL | 0.739
[3], first compound 0.048 µg/mL, partner 0.04 µg/mL | 0.544
[3], first compound 0.375 µg/mL, partner 0.005 µg/mL | 0.0823
[3], first compound 0.375 µg/mL, partner 0.01 µg/mL | 0.0713
[3], first compound 0.375 µg/mL, partner 0.02 µg/mL | 0.0526
[3], first compound 0.75 µg/mL, partner 0.005 µg/mL | 0.104
[3], first compound 0.75 µg/mL, partner 0.01 µg/mL | 0.0551
[3], first compound 0.75 µg/mL, partner 0.02 µg/mL | 0.0755
[3], first compound 1.5 µg/mL, partner 0.005 µg/mL | 0.0919
[3], first compound 1.5 µg/mL, partner 0.01 µg/mL | 0.0809
[3], first compound 1.5 µg/mL, partner 0.02 µg/mL | 0.0469

fitness, one replicate
Conditions | partner 0.0078 µg/mL | partner 0.0155 µg/mL | partner 0.0156 µg/mL | partner 0.031 µg/mL | partner 0.0312 µg/mL | partner 0.0625 µg/mL | partner 0.075 µg/mL | partner 0.15 µg/mL | partner 0.3 µg/mL
[1], first compound 0.0475 µg/mL | 0.924 | 0.934 | – | 0.931 | – | – | 0.66 | 0.0283 | 0.0599
[1], first compound 0.095 µg/mL | 0.926 | 0.814 | – | 0.674 | – | – | 0.581 | 0.0215 | 0.0316
[1], first compound 0.19 µg/mL | 0.62 | 0.621 | – | 0.575 | – | – | 0.377 | 0.0401 | 0.0338
[2], first compound 0.006 µg/mL | – | – | 0.7 | – | 0.531 | 0.435 | – | – | –

From the supplement of paper PMC10627819
